Measurements as given in patent US20130172294A1, “Treatment with VB-201” (Vascular Biogenics Ltd., priority 2010, published 2013).
Where “and” joins values, the source holds several entries; their conditions need not be identical. Identical values can stand only once.

Legend:
Format in all cases: in vivo, human
[1] = Single-dose pharmacokinetics of VB-201 in plasma (Example 1); conditions: for AUC(0-infinity): in ng·h/mL
Description: Determination of VB-201 concentrations in plasma was performed using an HPLC-MS/MS (high performance liquid chromatography with tandem mass spectrometric detection) assay. Calibration was for a range of from 5 to 500 ng/ml for low doses and from 50 to 5000 ng/ml for high doses. Pharmacokinetic parameters were estimated by using a non-compartmental method, except for the AUC (area under curve), which was determined using a (log-) trapezoidal rule as the area above the previous trough level. […] All subjects were healthy male volunteers. Five cohorts of six subjects each received a single dose of 1, 3, 10, 30 or 50 mg VB-201. 10 subjects received a placebo. The VB-201 was formulated in gelatin capsules enterocoated with Eudragit®. […] Evaluation of relative bioavailability was performed for the primary target parameters AUC (area under the concentration-time curve) and Cmax-(maximum plasma concentration).

[2] = Safety and tolerability of single dose (Example 1); conditions: single oral dose 1-50 mg
Excerpt: Safety and tolerability of VB-201 was judged by evaluating the incidence of abnormal findings in the following measurements: vital signs: systolic and diastolic blood pressure, heart rate, respiratory rate, body temperature; physical examination; 12-lead electrocardiogram; laboratory tests of blood samples for: complete blood count, prothrombin time/partial thromboplastin time, LDL- and HDL-cholesterol, total cholesterol, triglycerides, glucose, blood urea nitrogen, sodium, potassium, creatinine, calcium, phosphorus, creatinine phosphokinase, lactate dehydrogenase, aspartate transaminase, alanine transaminase, γ-glutamyl transferase, alkaline phosphatase, protein, albumin, total bilirubin, total IgM and IgG antibodies, interleukin-12/23 p40, tumor necrosis factor-α, and interleukin-6, as well as routine urinalysis; and all adverse events, whether or not considered serious, and whether or not considered related to the investigational agent, according to the criteria for Good Clinical Practice. Treatment-emergent adverse events were defined as any adverse event that started on or after administration of the first dose of VB-201, and no more than 30 days after administration of the last dose, or are ongoing at the time of the first dose and worsened in severity or frequency during treatment. […] All subjects were healthy male volunteers. Five cohorts of six subjects each received a single dose of 1, 3, 10, 30 or 50 mg VB-201. 10 subjects received a placebo. The VB-201 was formulated in gelatin capsules enterocoated with Eudragit®.

[3] = Safety and tolerability of repeated doses 5-30 mg (Example 2)
Excerpt: Safety and tolerability of VB-201 was judged by evaluating the incidence of abnormal findings in the following measurements: vital signs: systolic and diastolic blood pressure, heart rate, respiratory rate, body temperature; physical examination; 12-lead electrocardiogram; laboratory tests of blood samples for: complete blood count, prothrombin time/partial thromboplastin time, LDL- and HDL-cholesterol, total cholesterol, triglycerides, glucose, blood urea nitrogen, sodium, potassium, creatinine, calcium, phosphorus, creatinine phosphokinase, lactate dehydrogenase, aspartate transaminase, alanine transaminase, γ-glutamyl transferase, alkaline phosphatase, protein, albumin, total bilirubin, total IgM and IgG antibodies, interleukin-12/23 p40, tumor necrosis factor-α, and interleukin-6, as well as routine urinalysis; and all adverse events, whether or not considered serious, and whether or not considered related to the investigational agent, according to the criteria for Good Clinical Practice. Treatment-emergent adverse events were defined as any adverse event that started on or after administration of the first dose of VB-201, and no more than 30 days after administration of the last dose, or are ongoing at the time of the first dose and worsened in severity or frequency during treatment. […] The subjects were all healthy volunteers. […] 10 subjects received a placebo. […]

CCCCCCCCCCCCCCCCOCC(COP(=O)([O-])OCC[N+](C)(C)C)OCCCCC(=O)O (stereo not drawn) [VB-201, 1-hexadecyl-2-(4′-carboxybutyl)-glycerol-3-phosphocholine]
AUC(0-168) ([1]; single oral dose 1 mg): 501 ± 241 ng·h/mL | AUC(0-last non-BLQ) ([1]; single oral dose 1 mg): 388 ± 168 ng·h/mL | AUMC ([1]; single oral dose 1 mg): 70178 ± 38633 hours^2*ng/ml | Cavg (0-168) ([1]; single oral dose 1 mg): 2.98 ± 1.43 ng/mL | Cl/F ([1]; single oral dose 1 mg): 1.44 ± 0.087 L/h | Cmax ([1]; single oral dose 1 mg): 12.52 ± 2.42 ng/mL | Estimated amount circulating ([1]; single oral dose 1 mg): 0.26 ± 0.05 mg | Estimated minimum bioavailability ([1]; single oral dose 1 mg): 26 ± 5% | Ke ([1]; single oral dose 1 mg): 0.0165 ± 0.0099 h⁻¹ | MTT ([1]; single oral dose 1 mg): 76 ± 27 h | T1/2 ([1]; single oral dose 1 mg): 51 ± 19 h | Tmax ([1]; single oral dose 1 mg): 8.0 ± 2.1 h | AUC(0-infinity) ([1]; single oral dose 1 mg): 840 ± 309 | AUC(0-168) ([1]; single oral dose 3 mg): 2575 ± 1027 ng·h/mL | AUC(0-last non-BLQ) ([1]; single oral dose 3 mg): 2234 ± 1259 ng·h/mL | AUMC ([1]; single oral dose 3 mg): 214719 ± 133999 hours^2*ng/ml | Cavg (0-168) ([1]; single oral dose 3 mg): 15.33 ± 6.11 ng/mL | Cl/F ([1]; single oral dose 3 mg): 1.21 ± 0.49 L/h | Cmax ([1]; single oral dose 3 mg): 53.21 ± 19.43 ng/mL | Estimated amount circulating ([1]; single oral dose 3 mg): 1.12 ± 0.41 mg | Estimated minimum bioavailability ([1]; single oral dose 3 mg): 37 ± 14% | Ke ([1]; single oral dose 3 mg): 0.015 ± 0.0027 h⁻¹ | MTT ([1]; single oral dose 3 mg): 70 ± 16 h | T1/2 ([1]; single oral dose 3 mg): 48 ± 10 h | Tmax ([1]; single oral dose 3 mg): 8.2 ± 3.9 h | AUC(0-infinity) ([1]; single oral dose 3 mg): 2886 ± 1262 | AUC(0-168) ([1]; single oral dose 10 mg): 6138 ± 2259 ng·h/mL | AUC(0-last non-BLQ) ([1]; single oral dose 10 mg): 5634 ± 2705 ng·h/mL | AUMC ([1]; single oral dose 10 mg): 333614 ± 227308 hours^2*ng/ml | Cavg (0-168) ([1]; single oral dose 10 mg): 36.53 ± 13.44 ng/mL | Cl/F ([1]; single oral dose 10 mg): 1.83 ± 0.84 L/h | Cmax ([1]; single oral dose 10 mg): 131.7 ± 20.47 ng/mL | Estimated amount circulating ([1]; single oral dose 10 mg): 2.77 ± 0.62 mg | Estimated minimum bioavailability ([1]; single oral dose 10 mg): 28 ± 6% | Ke ([1]; single oral dose 10 mg): 0.0191 ± 0.0026 h⁻¹ | MTT ([1]; single oral dose 10 mg): 46 ± 20 h | T1/2 ([1]; single oral dose 10 mg): 37 ± 5 h | Tmax ([1]; single oral dose 10 mg): 7.1 ± 1.9 h | AUC(0-infinity) ([1]; single oral dose 10 mg): 6395 ± 2551 | AUC(0-168) ([1]; single oral dose 30 mg): 23243 ± 7277 ng·h/mL | AUC(0-last non-BLQ) ([1]; single oral dose 30 mg): 23243 ± 7277 ng·h/mL | AUMC ([1]; single oral dose 30 mg): 1463889 ± 520387 hours^2*ng/ml | Cavg (0-168) ([1]; single oral dose 30 mg): 138.4 ± 43.32 ng/mL | Cl/F ([1]; single oral dose 30 mg): 1.37 ± 0.58 L/h | Cmax ([1]; single oral dose 30 mg): 495.0 ± 154.2 ng/mL | Estimated amount circulating ([1]; single oral dose 30 mg): 10.40 ± 3.24 mg | Estimated minimum bioavailability ([1]; single oral dose 30 mg): 35 ± 11% | Ke ([1]; single oral dose 30 mg): 0.018 ± 0.0021 h⁻¹ | MTT ([1]; single oral dose 30 mg): 59 ± 4 h | T1/2 ([1]; single oral dose 30 mg): 39 ± 4 h | Tmax ([1]; single oral dose 30 mg): 6.0 ± 0.9 h | AUC(0-infinity) ([1]; single oral dose 30 mg): 24668 ± 7941 | AUC(0-168) ([1]; single oral dose 50 mg): 58816 ± 31297 ng·h/mL | AUC(0-last non-BLQ) ([1]; single oral dose 50 mg): 58816 ± 31297 ng·h/mL | AUMC ([1]; single oral dose 50 mg): 4719948 ± 3532459 hours^2*ng/ml | Cavg (0-168) ([1]; single oral dose 50 mg): 350.1 ± 186.3 ng/mL | Cl/F ([1]; single oral dose 50 mg): 0.97 ± 0.46 L/h | Cmax ([1]; single oral dose 50 mg): 1172 ± 459.4 ng/mL | Estimated amount circulating ([1]; single oral dose 50 mg): 24.61 ± 9.65 mg | Estimated minimum bioavailability ([1]; single oral dose 50 mg): 49% | Ke ([1]; single oral dose 50 mg): 0.015 ± 0.0027 h⁻¹ | MTT ([1]; single oral dose 50 mg): 67 ± 14 h | T1/2 ([1]; single oral dose 50 mg): 47 ± 9 h | Tmax ([1]; single oral dose 50 mg): 6.5 ± 0.8 h | estimated bioavailability, average of the other 4 subjects ([1]; single oral dose 50 mg): 38% | estimated bioavailability, 2 subjects with particularly high values ([1]; single oral dose 50 mg, individual subjects): 75% and 71% | AUC(0-infinity) ([1]; single oral dose 50 mg): 65628 ± 37141 | dose linearity of AUC and Cmax ([1]; single oral doses 1-50 mg): dose-linear and nearly dose-proportional | highest estimated bioavailability observed in individuals ([1]; single oral doses 1-50 mg): 75% | lowest estimated bioavailability observed in individuals ([1]; single oral doses 1-50 mg): 18% | electrocardiogram findings [2]: None of the subjects which received VB-201 had clinically significant electrocardiogram findings | safety profile [2]: comparable safety profile of VB-201 to a placebo | serious adverse events [2]: No serious adverse events occurred | serious or severe adverse events ([3]; daily 5-30 mg, 14 days): No serious or severe adverse events occurred | safety and tolerability ([3]; orally for 14 days at daily doses 5 mg to 30 mg): as safe and tolerable as placebo
